Holding throughout (test): Vertical diffusion test (impregnated filter paper embedded in agar)
Common to all, as to type: cell-based

The subject of assay [1] is Corynebacterium species. To be noted: 0,3 %; for Vertikaler Diffusionstest, Corynebacteriumt species 10^4 / Vertikaler Diffusionstest, Corynebacteriumt species 10^6 KBE/ml: 0,2 ml/ 15,9 cm^2; for Vertikaler Diffusionstest, Corynebacteriumt species 10^4: 10^4 KBE/ml; for antibakterielle Wirkung: Tabelle 1, Corynebacterium species. An excerpt: (§1) Die mikrobiologischen Prüfungen wurden mit den Bakterienarten Staphylococcus aureus, Corynebacterium species und Staphylococcus epidermidis durchgeführt. Es wurden jeweils Konzentrationen von 0,3 % der Verbindungen 1a, b, c, 2 gegen unterschiedliche Keimzahlen eingesetzt und 1. mit einer Aufschwemmung von 10^4 koloniebildenden Einheiten/ml (KBE/ml) und 2. mit 10^6 KBE/ml versehen. Die Durchführung der Untersuchung erfolgte in üblicher Weise, indem Filterpapierplättchen mit einer Fläche von 15,9 cm^2 mit je 0,2 ml der 0,3 % igen alkoholischen Konzentrationen beschickt wurden. Nach Trocknen der aufgebrachten Lösungen wurden die Filterpapierplättchen dann in den Agar von Petrischalen eingebettet, so daß die Oberfläche mit einer dünnen Agarschicht überschichtet werden konnte. Danach wurde die ganze Platte mit den Testbakterien in unterschiedlicher Keimkonzentration beimpft. (Tabelle 1)

Assay [2] relates to Staphylococcus epidermidis. The settings on record: for Vertikaler Diffusionstest, Staphylococcus epidermidis 10^4 / Vertikaler Diffusionstest, Staphylococcus epidermidis 10^6 KBE/ml / Hemmung / antibakterielle Wirkung: 0,3 %; for Vertikaler Diffusionstest, Staphylococcus epidermidis 10^4 / Vertikaler Diffusionstest, Staphylococcus epidermidis 10^6 KBE/ml: 0,2 ml/ 15,9 cm^2; for Vertikaler Diffusionstest, Staphylococcus epidermidis 10^4: 10^4 KBE/ml; for Hemmung / antibakterielle Wirkung: Tabelle 1.
Excerpt: as §1

For assay [3], the system named is Staphylococcus aureus SG 511. To be noted: for Vertikaler Diffusionstest, Staphylococcus aureus SG 511 10^4 / Vertikaler Diffusionstest, Staphylococcus aureus SG 511 10^6 KBE/ml / antibakterielle Wirkung: 0,3 %; for Vertikaler Diffusionstest, Staphylococcus aureus SG 511 10^4 / Vertikaler Diffusionstest, Staphylococcus aureus SG 511 10^6 KBE/ml: 0,2 ml/ 15,9 cm^2; for Vertikaler Diffusionstest, Staphylococcus aureus SG 511 10^4: 10^4 KBE/ml; for antibakterielle Wirkung: Tabelle 1.
Excerpt: as §1

For `CC(C)=CCCC(C)=CCCC(C)=CCO` [Substanz 2, Farnesol, reference compound], in assay [1], the “Vertikaler Diffusionstest, Corynebacteriumt species 10^4” value stood at 0 and the “Vertikaler Diffusionstest, Corynebacteriumt species 10^6 KBE/ml” value was found to be 0. Moreover, in assay [2], the “Vertikaler Diffusionstest, Staphylococcus epidermidis 10^4” value was 1 - 2 and the “Vertikaler Diffusionstest, Staphylococcus epidermidis 10^6 KBE/ml” value is 1 - 2. Also, the Wirksamkeit result in assay [2] (compared with 1a, b, c, Staphylococcus epidermidis) is listed as “etwas geringerer Wirksamkeit”. Moreover, in assay [3], the “Vertikaler Diffusionstest, Staphylococcus aureus SG 511 10^4” value was 0 - 1 and the “Vertikaler Diffusionstest, Staphylococcus aureus SG 511 10^6 KBE/ml” value is 0 - 1. The Wirksamkeit entry in assay [3] (compared with 1a, b, c, Staphylococcus aureus) is recorded as “etwas geringerer Wirksamkeit”.
As for `CC(C)=CCC/C(C)=C\CC/C(C)=C/CO` [Substanz 1b], in assay [1], the “Vertikaler Diffusionstest, Corynebacteriumt species 10^4” value was 0; the “Vertikaler Diffusionstest, Corynebacteriumt species 10^6 KBE/ml” value amounted to 0; the “antibakterielle Wirkung” value was “deutliche antibakterielle Wirkung”. Also, in assay [2], the “Vertikaler Diffusionstest, Staphylococcus epidermidis 10^4” value is listed as 0 and the “Vertikaler Diffusionstest, Staphylococcus epidermidis 10^6 KBE/ml” value is given as 0 - 1. Further, in assay [2] (Staphylococcus epidermidis), the Hemmung result is recorded as “fast totale Hemmung” and the “antibakterielle Wirkung” value was “deutliche antibakterielle Wirkung”. In assay [3], the “Vertikaler Diffusionstest, Staphylococcus aureus SG 511 10^4” value was 0 and the “Vertikaler Diffusionstest, Staphylococcus aureus SG 511 10^6 KBE/ml” value is recorded as 0. Further, the “antibakterielle Wirkung” value in assay [3] (Staphylococcus aureus) was “deutliche antibakterielle Wirkung”.
For `CC(C)=CCC/C(C)=C\CC/C(C)=C\CO` [Substanz 1c], in assay [1], the “Vertikaler Diffusionstest, Corynebacteriumt species 10^4” value amounted to 0; the “Vertikaler Diffusionstest, Corynebacteriumt species 10^6 KBE/ml” value stood at 0; the “antibakterielle Wirkung” value is “deutliche antibakterielle Wirkung”. In assay [2], the “Vertikaler Diffusionstest, Staphylococcus epidermidis 10^4” value came to 0 and the “Vertikaler Diffusionstest, Staphylococcus epidermidis 10^6 KBE/ml” value is 0 - 1. Further, in assay [2] (Staphylococcus epidermidis), the Hemmung entry is “fast totale Hemmung” and the “antibakterielle Wirkung” value is “deutliche antibakterielle Wirkung”. In addition, in assay [3], the “Vertikaler Diffusionstest, Staphylococcus aureus SG 511 10^4” value was 0 and the “Vertikaler Diffusionstest, Staphylococcus aureus SG 511 10^6 KBE/ml” value is recorded as 0. Further, the “antibakterielle Wirkung” value in assay [3] (Staphylococcus aureus) is “deutliche antibakterielle Wirkung”.
As to `CC(C)=CCC/C(C)=C/CC/C(C)=C\CO` [Substanz 1a], in assay [1], the “Vertikaler Diffusionstest, Corynebacteriumt species 10^4” value is reported as 0; the “Vertikaler Diffusionstest, Corynebacteriumt species 10^6 KBE/ml” value amounted to 0; the “antibakterielle Wirkung” value is “deutliche antibakterielle Wirkung”. Further, in assay [2], the “Vertikaler Diffusionstest, Staphylococcus epidermidis 10^4” value is listed as 0 - 1 and the “Vertikaler Diffusionstest, Staphylococcus epidermidis 10^6 KBE/ml” value was 0 - 1. Besides, in assay [2] (Staphylococcus epidermidis), the Hemmung result was “fast totale Hemmung” and the “antibakterielle Wirkung” value is recorded as “deutliche antibakterielle Wirkung”. Also, in assay [3], the “Vertikaler Diffusionstest, Staphylococcus aureus SG 511 10^4” value is listed as 0 and the “Vertikaler Diffusionstest, Staphylococcus aureus SG 511 10^6 KBE/ml” value stood at 0. The “antibakterielle Wirkung” value in assay [3] (Staphylococcus aureus) is “deutliche antibakterielle Wirkung”.

The values are drawn from EP0126944B1, “Use of 6-(Z) or 2-(Z) configurational 3,7,11-trimethyl-dodeca-2,6,10-trien-1-ols as bacteriostats in cosmetic products” (Dragoco Gerberding & Co. GmbH, priority 1983, dated 1984).
